Data as given in patent US20240158370A1, “CK1 alpha AND DUAL CK1 alpha / GSPT1 DEGRADING COMPOUNDS” (Innovo Therapeutics, Inc., priority 2022, published 2024).

What was measured:
[1] = molecular target: T1, CK1α (Homo sapiens, UniProt P48729+Q96SW2); assay: HiBiT degradation assay, CK1α, Procedure A; format: cell-based; conditions: six hours incubation
T1 construct: CSNK1A1-HiBit KI HEK293(LgBit) Cells; host or cells: HEK293(LgBit) knock-in cells
Method in brief: (§1)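 Cells in DMEM+10% FBS at 1×10^6 cells/ml were added to pre-spotted compound (10-point dose response, 10 μM to 0.005 μM, 0.1% DMSO) and incubated 6 h at 37° C. Nano-Glo HiBiT lytic reagent was added and luminescence read. DC50 and Ymin came from 4-parameter curve fits.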

[2] = molecular target: GSPT1 (Homo sapiens, UniProt P15170+Q96SW2); assay: HiBiT degradation assay, GSPT1, Procedure A; format: cell-based; design: HiBit-GSPT1 KI HEK293(LgBit) Cells; host or cells: HEK293(LgBit) knock-in cells; conditions: six hours incubation
Method in brief: as §1

GSPT1, sequence (P15170 whole entry): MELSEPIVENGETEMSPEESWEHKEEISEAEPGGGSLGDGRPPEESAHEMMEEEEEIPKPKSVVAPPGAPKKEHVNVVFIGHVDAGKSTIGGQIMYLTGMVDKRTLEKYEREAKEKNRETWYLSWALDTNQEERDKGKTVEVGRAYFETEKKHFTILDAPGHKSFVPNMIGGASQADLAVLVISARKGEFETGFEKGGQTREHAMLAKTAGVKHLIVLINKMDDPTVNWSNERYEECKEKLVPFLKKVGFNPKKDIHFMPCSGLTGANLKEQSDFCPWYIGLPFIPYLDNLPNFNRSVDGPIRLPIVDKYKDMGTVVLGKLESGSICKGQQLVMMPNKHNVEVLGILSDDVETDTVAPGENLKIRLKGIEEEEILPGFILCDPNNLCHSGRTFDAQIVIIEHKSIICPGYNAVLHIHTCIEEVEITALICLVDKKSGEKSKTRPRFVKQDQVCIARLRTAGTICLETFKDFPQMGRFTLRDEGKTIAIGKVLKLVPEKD
GSPT1, sequence (Q96SW2 whole entry): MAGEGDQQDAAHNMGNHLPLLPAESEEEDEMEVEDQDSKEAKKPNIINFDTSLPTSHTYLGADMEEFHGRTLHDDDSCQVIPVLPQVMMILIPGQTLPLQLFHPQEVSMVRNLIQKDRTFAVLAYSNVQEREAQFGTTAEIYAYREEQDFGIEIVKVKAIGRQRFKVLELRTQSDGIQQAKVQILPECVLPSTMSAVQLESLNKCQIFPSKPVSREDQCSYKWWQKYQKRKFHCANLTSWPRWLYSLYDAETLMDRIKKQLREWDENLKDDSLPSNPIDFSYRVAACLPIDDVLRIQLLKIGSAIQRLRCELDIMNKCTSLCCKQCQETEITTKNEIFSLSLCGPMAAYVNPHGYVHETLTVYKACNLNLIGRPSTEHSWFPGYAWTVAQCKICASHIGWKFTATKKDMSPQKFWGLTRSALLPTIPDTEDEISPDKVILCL
GSPT1, sequence (Q16531 whole entry partner): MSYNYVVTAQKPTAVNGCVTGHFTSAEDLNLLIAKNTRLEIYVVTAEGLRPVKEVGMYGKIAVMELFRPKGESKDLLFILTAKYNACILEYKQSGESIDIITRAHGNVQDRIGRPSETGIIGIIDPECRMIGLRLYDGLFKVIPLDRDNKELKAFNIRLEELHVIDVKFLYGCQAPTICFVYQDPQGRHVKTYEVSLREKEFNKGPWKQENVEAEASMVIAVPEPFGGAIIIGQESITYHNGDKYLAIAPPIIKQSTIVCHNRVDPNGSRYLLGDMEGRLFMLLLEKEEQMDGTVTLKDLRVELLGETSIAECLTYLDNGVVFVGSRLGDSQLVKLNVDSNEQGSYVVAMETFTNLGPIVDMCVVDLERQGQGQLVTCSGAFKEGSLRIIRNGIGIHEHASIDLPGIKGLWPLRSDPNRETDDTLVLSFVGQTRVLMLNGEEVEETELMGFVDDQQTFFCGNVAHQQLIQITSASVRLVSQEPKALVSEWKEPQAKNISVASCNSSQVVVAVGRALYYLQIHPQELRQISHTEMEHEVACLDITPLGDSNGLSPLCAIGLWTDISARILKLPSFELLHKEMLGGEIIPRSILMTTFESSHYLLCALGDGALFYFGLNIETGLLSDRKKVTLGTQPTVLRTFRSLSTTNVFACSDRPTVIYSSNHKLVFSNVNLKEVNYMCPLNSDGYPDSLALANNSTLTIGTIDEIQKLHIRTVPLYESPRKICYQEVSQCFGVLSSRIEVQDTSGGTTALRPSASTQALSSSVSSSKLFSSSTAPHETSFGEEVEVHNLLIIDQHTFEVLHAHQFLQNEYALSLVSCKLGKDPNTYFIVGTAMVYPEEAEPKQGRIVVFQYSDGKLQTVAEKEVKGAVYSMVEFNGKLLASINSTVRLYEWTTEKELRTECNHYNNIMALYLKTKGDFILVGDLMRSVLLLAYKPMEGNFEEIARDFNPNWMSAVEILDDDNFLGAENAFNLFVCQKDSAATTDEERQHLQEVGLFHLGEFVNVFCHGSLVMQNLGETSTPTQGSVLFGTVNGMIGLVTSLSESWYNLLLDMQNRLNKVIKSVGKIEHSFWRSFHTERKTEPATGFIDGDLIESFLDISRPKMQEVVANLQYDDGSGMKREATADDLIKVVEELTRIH
T1 sequence (P48729 whole entry): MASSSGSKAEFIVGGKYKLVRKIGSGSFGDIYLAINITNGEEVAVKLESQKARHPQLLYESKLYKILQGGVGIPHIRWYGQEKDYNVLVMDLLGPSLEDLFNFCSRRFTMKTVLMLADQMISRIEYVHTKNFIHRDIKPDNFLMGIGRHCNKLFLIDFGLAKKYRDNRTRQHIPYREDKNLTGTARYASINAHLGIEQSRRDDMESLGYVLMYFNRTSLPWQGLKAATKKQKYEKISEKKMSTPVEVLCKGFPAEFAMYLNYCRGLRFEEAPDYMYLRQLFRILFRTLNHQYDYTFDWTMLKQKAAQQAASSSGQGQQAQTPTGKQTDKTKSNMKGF
T1 sequence (Q96SW2 whole entry): as the sequence (Q96SW2 whole entry) above
T1 sequence (Q16531 whole entry partner): as the sequence (Q16531 whole entry partner) above

In the case of `Cn1cnc(-c2ccc3c(c2)CN(C2CCC(=O)NC2=O)C3=O)c1-c1ccc(OCc2ccccc2)cc1` (centres unmarked) [Example 310], the “CK1α Ymin” value [1] is reported as “D (D = >10- 25% remaining)”, the DC50 [1] is reported as less than 0.025 µM and the DC50 [2] is reported as no less than 0.025 µM. For the same molecule, the “GSPT1 Ymin” value [2] was “F (F = >75-100% remaining)”.
`Cn1cnc(-c2ccc3c(c2)CN(C2CCC(=O)NC2=O)C3=O)c1-c1ccc(COc2ccccc2)cc1` (centres unmarked) [Example 311] was tested, and the “CK1α Ymin” value [1] was “D (D = >10- 25% remaining)”, the DC50 [1] was less than 0.025 µM and the DC50 [2] was less than 0.025 µM. The “GSPT1 Ymin” value [2] was “E (E = >25-75% remaining)”.
With `CN1CCN(Cc2cccc(-c3c(-c4ccc5c(c4)CN(C4CCC(=O)NC4=O)C5=O)ncn3C)c2)CC1` (centres unmarked) [Example 312] the “CK1α Ymin” value [1] was “D (D = >10- 25% remaining)”, the DC50 [1] was no less than 0.025 µM and the DC50 [2] was no less than 0.025 µM. The “GSPT1 Ymin” value [2] was “F (F = >75-100% remaining)”.
With `CN1CCN(Cc2ccc(-c3c(-c4ccc5c(c4)CN(C4CCC(=O)NC4=O)C5=O)ncn3C)cc2)CC1` (centres unmarked) [Example 313] the “CK1α Ymin” value [1] was “D (D = >10- 25% remaining)”, the DC50 [1] was no less than 0.025 µM and the DC50 [2] was no less than 0.025 µM. The “GSPT1 Ymin” value [2] was “F (F = >75-100% remaining)”.
For `Cn1cnc(-c2ccc3c(c2)CN(C2CCC(=O)NC2=O)C3=O)c1-c1ccc(C(=O)N2CCOCC2)cc1` (centres unmarked) [Example 314], the “CK1α Ymin” value [1] was “E (E = >25-75% remaining)”, the DC50 [1] was no less than 0.025 µM and the DC50 [2] was no less than 0.025 µM. For the same molecule, the “GSPT1 Ymin” value [2] was “F (F = >75-100% remaining)”.
With `Cn1cnc(-c2ccc3c(c2)CN(C2CCC(=O)NC2=O)C3=O)c1-c1ccc(N2CCOCC2)c(Cl)c1` (centres unmarked) [Example 315] the “CK1α Ymin” value [1] was “D (D = >10- 25% remaining)”, the DC50 [1] was less than 0.025 µM and the DC50 [2] was no less than 0.025 µM. The “GSPT1 Ymin” value [2] was “F (F = >75-100% remaining)”.
With `Cn1cnc(-c2ccc3c(c2)CN(C2CCC(=O)NC2=O)C3=O)c1C1CC1` (centres unmarked) [Example 316] the “CK1α Ymin” value [1] was “D (D = >10- 25% remaining)”, the DC50 [1] was less than 0.025 µM and the DC50 [2] was less than 0.025 µM. For the same molecule, the “GSPT1 Ymin” value [2] was “F (F = >75-100% remaining)”.
`Cn1cnc(-c2ccc3c(c2)CN(C2CCC(=O)NC2=O)C3=O)c1-c1ccncc1` (centres unmarked) [Example 317] was tested, and the “CK1α Ymin” value [1] was “D (D = >10- 25% remaining)”, the DC50 [1] was less than 0.025 µM and the DC50 [2] was no less than 0.025 µM. For the same molecule, the “GSPT1 Ymin” value [2] was “F (F = >75-100% remaining)”.
`Cn1cnc(-c2ccc3c(c2)CN(C2CCC(=O)NC2=O)C3=O)c1-c1ccnn1C` (centres unmarked) [Example 318] was tested, and the “CK1α Ymin” value [1] was “E (E = >25-75% remaining)”, the DC50 [1] was less than 0.025 µM and the DC50 [2] was less than 0.025 µM. The “GSPT1 Ymin” value [2] was “F (F = >75-100% remaining)”.
In the case of `Cc1nocc1-c1c(-c2ccc3c(c2)CN(C2CCC(=O)NC2=O)C3=O)ncn1C` (centres unmarked) [Example 320], the “CK1α Ymin” value [1] is reported as “D (D = >10- 25% remaining)”, the DC50 [1] is reported as less than 0.025 µM and the DC50 [2] is reported as no less than 0.025 µM. For the same molecule, the “GSPT1 Ymin” value [2] was “F (F = >75-100% remaining)”.
In the case of `Cc1cncc(-c2c(-c3ccc4c(c3)CN(C3CCC(=O)NC3=O)C4=O)ncn2C)c1` (centres unmarked) [Example 321], the “CK1α Ymin” value [1] is reported as “D (D = >10- 25% remaining)”, the DC50 [1] is reported as less than 0.025 µM and the DC50 [2] is reported as no less than 0.025 µM. The “GSPT1 Ymin” value [2] was “F (F = >75-100% remaining)”.
`Cc1c(-c2c(-c3ccc4c(c3)CN(C3CCC(=O)NC3=O)C4=O)ncn2C)cnn1C` (centres unmarked) [Example 322] was tested, and the “CK1α Ymin” value [1] was “C (C = 0-10% remaining)”, the DC50 [1] was less than 0.025 µM and the DC50 [2] was less than 0.025 µM. The “GSPT1 Ymin” value [2] was “F (F = >75-100% remaining)”.
In the case of `Cc1nn(C)cc1-c1c(-c2ccc3c(c2)CN(C2CCC(=O)NC2=O)C3=O)ncn1C` (centres unmarked) [Example 323], the “CK1α Ymin” value [1] is reported as “E (E = >25-75% remaining)”, the DC50 [1] is reported as no less than 0.025 µM and the DC50 [2] is reported as no less than 0.025 µM. For the same molecule, the “GSPT1 Ymin” value [2] was “F (F = >75-100% remaining)”.
For `Cc1cc(-c2c(-c3ccc4c(c3)CN(C3CCC(=O)NC3=O)C4=O)ncn2C)n(C)n1` (centres unmarked) [Example 324], the “CK1α Ymin” value [1] was “E (E = >25-75% remaining)”, the DC50 [1] was no less than 0.025 µM and the DC50 [2] was no less than 0.025 µM. The “GSPT1 Ymin” value [2] was “F (F = >75-100% remaining)”.
`Cn1cnc(-c2ccc3c(c2)CN(C2CCC(=O)NC2=O)C3=O)c1-c1cnc(C#N)nc1` (centres unmarked) [Example 325] was tested, and the “CK1α Ymin” value [1] was “E (E = >25-75% remaining)”, the DC50 [1] was no less than 0.025 µM and the DC50 [2] was no less than 0.025 µM. The “GSPT1 Ymin” value [2] was “F (F = >75-100% remaining)”.
For `Cn1cnc(-c2ccc3c(c2)CN(C2CCC(=O)NC2=O)C3=O)c1-c1cnn(C2CC2)c1` (centres unmarked) [Example 326], the “CK1α Ymin” value [1] was “C (C = 0-10% remaining)”, the DC50 [1] was less than 0.025 µM and the DC50 [2] was less than 0.025 µM. The “GSPT1 Ymin” value [2] was “F (F = >75-100% remaining)”.
With `COc1ncccc1-c1c(-c2ccc3c(c2)CN(C2CCC(=O)NC2=O)C3=O)ncn1C` (centres unmarked) [Example 327] the “CK1α Ymin” value [1] was “D (D = >10- 25% remaining)”, the DC50 [1] was less than 0.025 µM and the DC50 [2] was less than 0.025 µM. The “GSPT1 Ymin” value [2] was “F (F = >75-100% remaining)”.
In the case of `Cn1cnc(-c2ccc3c(c2)CN(C2CCC(=O)NC2=O)C3=O)c1-c1ccn(C)c(=O)c1` (centres unmarked) [Example 328], the “CK1α Ymin” value [1] is reported as “D (D = >10- 25% remaining)”, the DC50 [1] is reported as no less than 0.025 µM and the DC50 [2] is reported as no less than 0.025 µM. For the same molecule, the “GSPT1 Ymin” value [2] was “F (F = >75-100% remaining)”.
With `COc1ccc(-c2c(-c3ccc4c(c3)CN(C3CCC(=O)NC3=O)C4=O)ncn2C)cn1` (centres unmarked) [Example 329] the “CK1α Ymin” value [1] was “C (C = 0-10% remaining)”, the DC50 [1] was less than 0.025 µM and the DC50 [2] was no less than 0.025 µM. For the same molecule, the “GSPT1 Ymin” value [2] was “E (E = >25-75% remaining)”.
In the case of `CC(C)n1cc(-c2c(-c3ccc4c(c3)CN(C3CCC(=O)NC3=O)C4=O)ncn2C)cn1` (centres unmarked) [Example 330], the “CK1α Ymin” value [1] is reported as “E (E = >25-75% remaining)”, the DC50 [1] is reported as less than 0.025 µM and the DC50 [2] is reported as no less than 0.025 µM. For the same molecule, the “GSPT1 Ymin” value [2] was “F (F = >75-100% remaining)”.
For `Cn1cnc(-c2ccc3c(c2)CN(C2CCC(=O)NC2=O)C3=O)c1-c1cnn(-c2ccccc2)c1` (centres unmarked) [Example 332], the “CK1α Ymin” value [1] was “D (D = >10- 25% remaining)”, the DC50 [1] was less than 0.025 µM and the DC50 [2] was no less than 0.025 µM. The “GSPT1 Ymin” value [2] was “F (F = >75-100% remaining)”.
In the case of `O=C1CCC(N2Cc3cc(-c4cnn(C(F)(F)F)c4-c4ccccc4)ccc3C2=O)C(=O)N1` (centres unmarked) [Example 333, 3-(1-oxo-5-(5-phenyl-1-(trifluoromethyl)-1H-pyrazol-4-yl)isoindolin-2-yl)piperidine-2,6-dione], the “CK1α Ymin” value [1] is reported as “E (E = >25-75% remaining)”, the DC50 [1] is reported as less than 0.025 µM and the DC50 [2] is reported as no less than 0.025 µM. For the same molecule, the “GSPT1 Ymin” value [2] was “E (E = >25-75% remaining)”.
For `CC(F)(F)Cn1ncc(-c2ccc3c(c2)CN(C2CCC(=O)NC2=O)C3=O)c1-c1ccccc1` (centres unmarked) [Example 336, 3-(5-(1-(2,2-difluoropropyl)-5-phenyl-1H-pyrazol-4-yl)-1-oxoisoindolin-2-yl)piperidine-2,6-dione], the “CK1α Ymin” value [1] was “D (D = >10- 25% remaining)”, the DC50 [1] was no less than 0.025 µM and the DC50 [2] was no less than 0.025 µM. The “GSPT1 Ymin” value [2] was “F (F = >75-100% remaining)”.
With `O=C1CCC(N2Cc3cc(-c4cc(-c5ccccc5)n(C(F)F)n4)ccc3C2=O)C(=O)N1` (centres unmarked) [Example 337, 3-(5-(1-(difluoromethyl)-5-phenyl-1H-pyrazol-3-yl)-1-oxoisoindolin-2-yl)piperidine-2,6-dione] the “CK1α Ymin” value [1] was “D (D = >10- 25% remaining)”, the DC50 [1] was no less than 0.025 µM and the DC50 [2] was no less than 0.025 µM. For the same molecule, the “GSPT1 Ymin” value [2] was “F (F = >75-100% remaining)”.
For `Cc1c(-c2ccc3c(c2)CN(C2CCC(=O)NC2=O)C3=O)nc(-c2ccccc2)n1C` (centres unmarked) [Example 338, 3-(5-(1,5-dimethyl-2-phenyl-1H-imidazol-4-yl)-1-oxoisoindolin-2-yl)piperidine-2,6-dione], the “CK1α Ymin” value [1] was “C (C = 0-10% remaining)”, the DC50 [1] was less than 0.025 µM and the DC50 [2] was no less than 0.025 µM. For the same molecule, the “GSPT1 Ymin” value [2] was “F (F = >75-100% remaining)”.
`Cn1ncc(-c2ccc3c(c2)CN(C2CCC(=O)NC2=O)C3=O)c1-c1ccc(OC(F)(F)F)cc1` (centres unmarked) [Example 340, 3-(5-(1-methyl-5-(4-(trifluoromethoxy)phenyl)-1H-pyrazol-4-yl)-1-oxoisoindolin-2-yl)piperidine-2,6-dione] was tested, and the “CK1α Ymin” value [1] was “E (E = >25-75% remaining)”, the DC50 [1] was less than 0.025 µM and the DC50 [2] was less than 0.025 µM. For the same molecule, the “GSPT1 Ymin” value [2] was “F (F = >75-100% remaining)”.
